Legend:
[1] = Phosphatase activity: hydrolysis of 4-nitrophenyl phosphate; settings: UV-Vis spectroscopy, after 24 hrs
Text: Only [L2Zn3(PO4)]^3+ was observed, coupled with a rapid yellowing of the solution due to the formation of 4-nitrophenolate.
The rate of substrate hydrolysis is also dependent upon the metal used in the self-assembly process.

ARPE19 non-cancer cells = assay: Cellular ATP levels; type: cell-based, human; settings: 100 μM, 20 h
Method: FIG. 20. The effects of [L2Cu3]^6+, [L2Zn3]^6+ and [L2Mn3]^6+ on cellular ATP levels in the ARPE19 non-cancer and HCT116 p53^+/+ cancer cells. The effects of 20 h treatment with the indicated concentrations of [L2Cu3]^6+, [L2Zn3]^6+, or [L2Mn3]^6+ on total cellular levels of ATP compared to levels in vehicle control-treated ARPE19 or HCT116^+/+ cells. n=3 biological repeats, students t-test (p values).
Cellular ATP studies: The effects of 20 h treatment with a range of different concentrations of [L2Cu3]^6+, [L2Zn3]^6+ and [L2Mn3]^6+ on total cellular ATP levels in HCT116 p53^+/+ and ARPE19 cells are presented in FIG. 20. Differential effects are observed depending on the metal in the complex, with [L2Mn3]^6+ having the most profound effects on both the HCT116 p53^+/+ cancer and ARPE19 non-cancer cells. 6.25 μM [L2Mn3]^6+ treatment for 20 h reduced ATP levels in the HCT116 p53^+/+ cancer cells to <50% with ATP levels declining less in the ARPE19 non-cancer cells but reaching ˜40% with 100 μM [L2Mn3]^6+ treatment. […] Effects of [L2Cu3]^6+ on ATP levels was much less, with ATP levels in the HCT116 cells reduced to <50% only at the highest concentration of 100 μM.

[2] = tested on: HCT116 p53^−/− cancer cells; assay: Autophagy (CYTO-ID staining, confocal); type: cell-based, human; settings: 3.125 μM, 40 h
Method: (§1) FIG. 17. The effects of [L2Cu3]^6+, [L2Zn3]^6+ and [L2Mn3]^6+ on cellular vacuole formation and autophagy in the HCT116 p53^−/− cancer cells. Representative confocal images are shown of HCT116 p53^−/− cancer cells following 40 h treatment with vehicle control or 3.125 μM [L2Cu3]^6+, [L2Zn3]^6+, or [L2Mn3]^6+.
(§2) Autophagy studies: The effects of 3.125 μM [L2Cu3]^6+, [L2Zn3]^6+ and [L2Mn3]^6+ treatments (40 h) on the induction of cellular vacuoles and autophagy in the HCT116 p53^−/−, HCT116 p53^+/+ and ARPE19 cells are presented in FIGS. 17-19 with representative cell images shown. […] In the ARPE19 cells, levels of autophagy were low with all treatments and similar to basal levels in control-treated cells (FIG. 19).

[3] = tested on: panel of human cancer (HT-29, DLD-1, HCT116 p53^+/+ and p53^−/−, PSN1, MiaPaCa2, BxPC3, A549, H460, GBM1) and non-cancer cell lines (ARPE-19, MCF10A, NP1); assay: Chemosensitivity of a panel of human cancer and non-cancer cell lines (MTT, 96 h); type: cell-based; settings: cancer versus non-cancer cells
Method: FIG. 7. Chemosensitivity response of a panel of human cancer and non-cancer cell lines to 96 h continuous exposure to self-assembling test compounds. a, The potency of compounds tested against cancer (HT-29, DLD-1, HCT116 p53^+/+ and […], PSN1, MiaPaCa2, BxPC3, A549, H460 and GBM1) and non-cancer cells (ARPE-19, MCF10A and NP1). Each value represents the mean IC50±standard deviation from a minimum of three independent experiments. b,c, The selectivity index (SI) for [L2Cu3]^6+ (b) and [L2Zn3]^6+ (c) for the indicated cancer cell lines; SI is defined as the mean IC50 against the particular non-cancer cell line model divided by the mean IC50 against the particular cancer cell line. […] As the SI value is calculated using the mean IC50 values, experimental error is not included in these figures. d,e, IC50 values for the clinically approved platinates (cisplatin, oxaliplatin and carboplatin) and [L2Mn3]^6+ and the corresponding SI results.
All cell lines used were maintained at low passage in antibiotic-free media and were obtained from ATCC (LGC Standards, Middlesex, UK) unless otherwise stated (Methods). HT29, DLD-1, HCT116 p53^+/+ and HCT116 p53^−/− are all colorectal adenocarcinoma cell lines derived from different individuals and harbor different combinations of oncogenic lesions (except for the HCT116 isogenic cancer cell clones that are genetically identical except for p53 status). PSN-1, BxPC-3 and MiaPaCa2 are pancreatic carcinoma cell lines and A549 and H460 are lung carcinoma cell lines. HT29, DLD-1, PSN-1, BxPC-3, A549 and H460 cell lines were cultured in RPMI-1640 growth media (Sigma) containing 2 mM L-glutamine, 1 mM sodium pyruvate and 10% fetal bovine serum (FBS). HCT116 (p53^+/+ and p53^−/−) and MiaPaCa2 cell lines were cultured in Dulbecco's Modified Eagle's Medium (Sigma), 2 mM L-glutamine and 10% FBS. The ARPE-19 retinal epithelial non-cancer cell line (Dunn et al., 1996) was cultured in DMEM/F12 media (Gibco), 2 mM L-glutamine, 1 mM sodium pyruvate and 10% FBS. The MCF10A non-cancerous human breast epithelial cell line was cultured in Minimal Essential Media Eagle (Sigma), 2 mM L-glutamine, 1 mM sodium pyruvate, 10% FBS and 1×non-essential amino acids (NEAA). NP1 and GBM1 cells were cultured on plasticware coated with poly-L-ornithine (5 μg/ml) and laminin (2.4 μg/ml) (Polson et al., 2018; Da Silva et al., 2019). […]
[L2M3]^6+ and all the other self-assembling complexes were freshly formed by adding DMSO to individual components mixing together by pipetting. […] Media and MTT were removed and formazan crystals were dissolved in 150 μl of DMSO and the absorbance of the resulting solution determined at 540 nm. […]

[4] = tested on: HCT116 p53^+/+ cancer cells; assay: Autophagy (CYTO-ID staining, confocal); type: cell-based, human; settings: 3.125 μM, 40 h
Method: as §1, with “18.” for “17.”, “p53^+/+” for “p53^−/−”
as §2

[Mn+2].[Mn+2].[Mn+2].c1ccc(-c2csc(NCCN(CCNc3nc(-c4ccccn4)cs3)CCNc3nc(-c4ccccn4)cs3)n2)nc1.c1ccc(-c2csc(NCCN(CCNc3nc(-c4ccccn4)cs3)CCNc3nc(-c4ccccn4)cs3)n2)nc1 [[L2Mn3]^6+]
phosphate hydrolysed compared with the Zn^2+ species [1]: three times more phosphate
ATP levels compared to vehicle control (ARPE19 non-cancer cells): ~40%
induction of autophagy [2]: most pronounced
preferential selectivity towards cancer cells [3]: ~2 fold
induction of autophagy [4]: evident

From US20230322815A1, “NOVEL COMPOUNDS AND THERAPEUTIC USES THEREOF” (University of Huddersfield, priority 2020, published 2023)
